Laboratory results as given in patent publication US20260109694A1, “HETEROCYCLIC COMPOUNDS AND USES THEREOF” (Kumquat Biosciences Inc., priority 2023, published 2026).

Key:
[1] = target: T1, PTP1B (Homo sapiens, UniProt P18031); experiment: Phosphatase activity assay (DiFMUP substrate); format: biochemical; conditions: value bin printed in column head
T1 sequence (P18031 1-435): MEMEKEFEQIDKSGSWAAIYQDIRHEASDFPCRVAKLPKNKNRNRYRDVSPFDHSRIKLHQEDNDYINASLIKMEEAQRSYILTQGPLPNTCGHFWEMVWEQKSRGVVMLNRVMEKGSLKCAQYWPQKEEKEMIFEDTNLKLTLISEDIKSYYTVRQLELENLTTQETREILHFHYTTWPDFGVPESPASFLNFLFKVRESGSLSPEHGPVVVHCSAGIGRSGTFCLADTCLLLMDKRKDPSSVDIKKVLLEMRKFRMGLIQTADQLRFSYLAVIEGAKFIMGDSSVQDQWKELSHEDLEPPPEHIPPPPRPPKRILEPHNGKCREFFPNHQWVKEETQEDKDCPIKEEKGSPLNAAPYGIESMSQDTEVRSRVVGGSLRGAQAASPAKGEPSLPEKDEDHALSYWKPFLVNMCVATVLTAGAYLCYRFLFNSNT
Experimental: (§1) The selectivity and potency of a small molecule PTPN2 inhibitor as provided herein against one or more protein tyrosine phosphatase (PTP) enzymes, and specifically against PTPN2, is assessed in various ways. The one or more PTP enzymes comprise Mycobacterium protein tyrosine phosphatase A (mPTPA), Mycobacterium protein tyrosine phosphatase B (mPTPB), PTPN1 (i.e., PTP1B), PTPN2 (i.e., TC-PTP), PTPN22 (i.e., LYP), SHP-1, SHP-2, FAP-1, Meg2, HePTP, Laforin, VHX, VHR, LMWPTP, Cdc14A, LAR, CD45, PTPRG, a fragment thereof, a variant thereof, and a combination thereof. Selectivity and potency of a small molecule PTPN2 inhibitor is evaluated using a PTP activity inhibition assay. The assay is performed using a buffer comprising 50 mM HEPES buffer pH 7.5, 150 mM NaCl, 0.5 mM EDTA, 1 mM DTT, 0.001% Tween-20.
(§2) The assay is performed using a phosphated substrate, e.g., 10 mM 6,8-Difluoro-4-Methylumbelliferyl Phosphate (DIFMUP) that is stored at −20° C. Alternatively or in addition to, the assay is performed using other phosphated substrate (e.g., fluorescein diphosphate). Each PTP enzyme is diluted in the assay buffer
(§3) The assay can be carried out at room temperature in multiplate format, e.g., using 384 well plates. A small molecule PTPN2 inhibitor dissolved in DMSO at one of 10 concentrations from a serial dilution or DMSO alone for control is added to each well. A mixture of the assay buffer comprising PTP enzyme (e.g., 0.025 ng/ul PTPN2) is added to each well and mixed for approximately 2 minutes. The reaction is initiated by adding DiFMUP diluted in the assay buffer to a final concentration of approximately 45 µM DiFMUP in PTPN2 assay. For each PTP enzyme, DiFMUP is added at the Km (Michaelis constant) of the enzyme that had been independently determined. The phosphatase activity of the PTP enzyme is assessed by monitoring appearance of a fluorescent product (6,8-difluoro-7-hydroxyl-4-coumarin (DiFMU) from DiFMUP) continuously for about 15 to 30 minutes, using the INFINITE M1000Pro plate reader (Tecan) with excitation at 360 nm and emission at 450 nm (cutoff filter at 435 nm) for DiFMU. Each assay is performed at least in duplicate. The rate (e.g., the initial rate) of DiFMU formation is plotted against the concentration of the small molecule PTPN2 inhibitor, and the data is fitted (e.g., using a 4-parameter equation) to determine the inflection point of the fit as the IC50 of the small molecule PTPN2 inhibitor for a specific enzyme. Utilizing this assay, the ability of the compounds in Table 1 to inhibit PTPN2 and PTP1B has been assessed. Table 3 summarizes the IC50 values.

[2] = target: T2, PTPN2 (Homo sapiens, UniProt P17706); experiment: Phosphatase activity assay (DiFMUP substrate); format: biochemical; conditions: value bin printed in column head
T2 sequence (P17706 1-415): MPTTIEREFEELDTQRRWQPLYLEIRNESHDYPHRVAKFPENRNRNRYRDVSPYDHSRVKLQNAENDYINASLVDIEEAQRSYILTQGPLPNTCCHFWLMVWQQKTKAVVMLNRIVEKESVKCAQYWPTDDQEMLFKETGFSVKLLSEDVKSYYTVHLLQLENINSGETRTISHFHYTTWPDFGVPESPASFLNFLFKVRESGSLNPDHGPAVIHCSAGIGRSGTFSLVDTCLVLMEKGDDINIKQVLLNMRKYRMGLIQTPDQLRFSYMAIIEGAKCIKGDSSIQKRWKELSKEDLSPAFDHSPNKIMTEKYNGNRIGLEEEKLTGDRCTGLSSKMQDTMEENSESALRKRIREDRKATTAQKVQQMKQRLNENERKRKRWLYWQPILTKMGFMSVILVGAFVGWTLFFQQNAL
Experimental: as §1, §2, §3

| SMILES | IC50 [1] [nM] | IC50 [2] [nM] |
| --- | --- | --- |
| CC(C)C(=O)O[C@@H](C)OC(=O)N1CC(c2ccc(O)c(N3CC(=O)NS3(=O)=O)c2F)=C[C@H]1CCC1CC1 [Compound 143, (R)-1-(isobutyryloxy)ethyl (R)-2-(2-cyclopropylethyl)-4-(3-(1,1-dioxido-4-oxo-1,2,5-thiadiazolidin-2-yl)-2-fluoro-4-hydroxyphenyl)-2,5-dihydro-1H-pyrrole-1-carboxylate] | ≤ 1000 | ≤ 1000 |
| CC(C)[C@H](N)C(=O)NCC(=O)N1CC(c2ccc(O)c(N3CC(=O)NS3(=O)=O)c2F)=C[C@H]1CCC1CCC1 [Compound 144, (S)-2-amino-N-(2-((R)-2-(2-cyclobutylethyl)-4-(3-(1,1-dioxido-4-oxo-1,2,5-thiadiazolidin-2-yl)-2-fluoro-4-hydroxyphenyl)-2,5-dihydro-1H-pyrrol-1-yl)-2-oxoethyl)-3-methylbutanamide] | ≤ 1000 | ≤ 1000 |
| CC(C)CC[C@H]1C=C(c2ccc(O)c(N3CC(=O)NS3(=O)=O)c2F)CN1 [Compound 145, (S)-5-(2-fluoro-6-hydroxy-3-(5-isopentyl-2,5-dihydro-1H-pyrrol-3-yl)phenyl)-1,2,5-thiadiazolidin-3-one 1,1-dioxide] | ≤ 1000 | ≤ 1000 |
| CC(C)CC[C@H]1C=C(c2ccc(O)c(N3CC(=O)NS3(=O)=O)c2F)CN1C(=O)OC(OC(=O)[C@H](N)C(C)C)C(C)C (stereo partly drawn) [Compound 146, 1-((D-valyl)oxy)-2-methylpropyl (2S)-4-(3-(1,1-dioxido-4-oxo-1,2,5-thiadiazolidin-2-yl)-2-fluoro-4-hydroxyphenyl)-2-isopentyl-2,5-dihydro-1H-pyrrole-1-carboxylate] | ≤ 1000 | ≤ 1000 |
| CC(OC(=O)[C@H](N)C(C)C)OC(=O)N1CC(c2ccc(O)c(N3CC(=O)NS3(=O)=O)c2F)=C[C@H]1CCC1CCC1 (stereo partly drawn) [Compound 147, 1-((D-valyl)oxy)ethyl (2R)-2-(2-cyclobutylethyl)-4-(3-(1,1-dioxido-4-oxo-1,2,5-thiadiazolidin-2-yl)-2-fluoro-4-hydroxyphenyl)-2,5-dihydro-1H-pyrrole-1-carboxylate] | ≤ 1000 | ≤ 1000 |
| CC(C)CC[C@H]1C=C(c2ccc(O)c(N3CC(=O)NS3(=O)=O)c2F)CN1C(=O)O[C@H](C)OC(=O)C(C)C [Compound 148, (R)-1-(isobutyryloxy)ethyl (S)-4-(3-(1,1-dioxido-4-oxo-1,2,5-thiadiazolidin-2-yl)-2-fluoro-4-hydroxyphenyl)-2-isopentyl-2,5-dihydro-1H-pyrrole-1-carboxylate] | ≤ 1000 | ≤ 1000 |
| CC(C)[C@@H](N)C(=O)NCC(=O)N1CC(c2ccc(O)c(N3CC(=O)NS3(=O)=O)c2F)=C[C@H]1CCC1CCC1 [Compound 149, (R)-2-amino-N-(2-((R)-2-(2-cyclobutylethyl)-4-(3-(1,1-dioxido-4-oxo-1,2,5-thiadiazolidin-2-yl)-2-fluoro-4-hydroxyphenyl)-2,5-dihydro-1H-pyrrol-1-yl)-2-oxoethyl)-3-methylbutanamide] | ≤ 1000 | ≤ 1000 |
| CC(C)C(=O)OC(OC(=O)N1CC(c2ccc(O)c(N3CC(=O)NS3(=O)=O)c2F)=C[C@H]1CCC1CCC1)C(C)C (stereo partly drawn) [Compound 150, 1-(isobutyryloxy)-2-methylpropyl (2R)-2-(2-cyclobutylethyl)-4-(3-(1,1-dioxido-4-oxo-1,2,5-thiadiazolidin-2-yl)-2-fluoro-4-hydroxyphenyl)-2,5-dihydro-1H-pyrrole-1-carboxylate] | ≤ 1000 | ≤ 1000 |
| CC(C)C(=O)O[C@@H](C)OC(=O)N1CC(c2ccc(O)c(N3CC(=O)NS3(=O)=O)c2F)=C[C@@H]1CCC1CC1 [Compound 151, (R)-1-(isobutyryloxy)ethyl (S)-2-(2-cyclopropylethyl)-4-(3-(1,1-dioxido-4-oxo-1,2,5-thiadiazolidin-2-yl)-2-fluoro-4-hydroxyphenyl)-2,5-dihydro-1H-pyrrole-1-carboxylate] | ≤ 1000 | ≤ 1000 |
| CC(C)CC[C@H]1C=C(c2ccc(O)c(N3CC(=O)NS3(=O)=O)c2F)CN1C(=O)O[C@@H](C)OC(=O)C1CCCC1 [Compound 152, (S)-1-((cyclopentanecarbonyl)oxy)ethyl (S)-4-(3-(1,1-dioxido-4-oxo-1,2,5-thiadiazolidin-2-yl)-2-fluoro-4-hydroxyphenyl)-2-isopentyl-2,5-dihydro-1H-pyrrole-1-carboxylate] | ≤ 1000 | > 1000 |
| CC(=O)OC(OC(=O)N1CC(c2ccc(O)c(N3CC(=O)NS3(=O)=O)c2F)=C[C@H]1CCC1CCC1)C(C)C (stereo partly drawn) [Compound 157, 1-acetoxy-2-methylpropyl (2R)-2-(2-cyclobutylethyl)-4-(3-(1,1-dioxido-4-oxo-1,2,5-thiadiazolidin-2-yl)-2-fluoro-4-hydroxyphenyl)-2,5-dihydro-1H-pyrrole-1-carboxylate] | ≤ 1000 | ≤ 1000 |

Continued, values first:

| IC50 [1] [nM] | IC50 [2] [nM] | SMILES |
| --- | --- | --- |
| > 1000 | > 1000 | CC(C)CC[C@H]1C=C(c2ccc(O)c(N3CC(=O)NS3(=O)=O)c2F)CN1C(=O)OC(C)OC(=O)C1CCCC1 (stereo partly drawn) [Compound 153, 1-((cyclopentanecarbonyl)oxy)ethyl (2S)-4-(3-(1,1-dioxido-4-oxo-1,2,5-thiadiazolidin-2-yl)-2-fluoro-4-hydroxyphenyl)-2-isopentyl-2,5-dihydro-1H-pyrrole-1-carboxylate] |
| ≤ 1000 | ≤ 1000 | CC(C)CC[C@H]1C=C(c2ccc(O)c(N3CC(=O)NS3(=O)=O)c2F)CN1C(=O)O[C@@H](C)OC(=O)C(C)C [Compound 154, (S)-1-(isobutyryloxy)ethyl (S)-4-(3-(1,1-dioxido-4-oxo-1,2,5-thiadiazolidin-2-yl)-2-fluoro-4-hydroxyphenyl)-2-isopentyl-2,5-dihydro-1H-pyrrole-1-carboxylate] |
| ≤ 1000 | ≤ 1000 | CC(C)C(=O)O[C@H](C)OC(=O)N1CC(c2ccc(O)c(N3CC(=O)NS3(=O)=O)c2F)=C[C@@H]1CCC1CC1 [Compound 155, (S)-1-(isobutyryloxy)ethyl (S)-2-(2-cyclopropylethyl)-4-(3-(1,1-dioxido-4-oxo-1,2,5-thiadiazolidin-2-yl)-2-fluoro-4-hydroxyphenyl)-2,5-dihydro-1H-pyrrole-1-carboxylate] |
| ≤ 1000 | ≤ 1000 | CC(OC(=O)C(C)C)OC(=O)N1CC(c2ccc(O)c(N3CC(=O)NS3(=O)=O)c2F)=C[C@H]1CCC1CCC1 (stereo partly drawn) [Compound 156, 1-(isobutyryloxy)ethyl (2R)-2-(2-cyclobutylethyl)-4-(3-(1,1-dioxido-4-oxo-1,2,5-thiadiazolidin-2-yl)-2-fluoro-4-hydroxyphenyl)-2,5-dihydro-1H-pyrrole-1-carboxylate] |
| ≤ 1000 | ≤ 1000 | CC(OC(=O)[C@@H](N)C(C)C)OC(=O)N1CC(c2ccc(O)c(N3CC(=O)NS3(=O)=O)c2F)=C[C@H]1CCC1CCC1 (stereo partly drawn) [Compound 158, 1-((L-valyl)oxy)ethyl (2R)-2-(2-cyclobutylethyl)-4-(3-(1,1-dioxido-4-oxo-1,2,5-thiadiazolidin-2-yl)-2-fluoro-4-hydroxyphenyl)-2,5-dihydro-1H-pyrrole-1-carboxylate] |
